The record followed here is patent publication US20080242681A1, “N-4-(6-(Hetero)Aryl-Pyrimidin-4-Ylaminophenyl)-Benzenesulfonamides as Kinase Inhibitors” (Altana Pharma AG, priority 2004, published 2008).

One assay addresses T1, PKCβ1 (Homo sapiens, UniProt P05771).
T1 construct: purchased Panvera
The assay can be described thus: Protein Kinase Cβ1 assay (SPA). It counts as biochemical. Conditions: human recombinant PKCβ1, SPA, biotinylated PKCα pseudosubstrate, 0.5 mM CaCl2; read-out: IC50, inhibition of PKC β1. On the procedure:
(§1) The compounds of formula 1 are tested for their activity on different protein kinases and PKC isoforms using a scintillation proximity assay (SPA, Amersham International plc). ^33P-labeled peptides are captured onto streptavidin coated yttrium silicate SPA beads. β-particles, emitted from the captured ^33P-labeled substrate in close proximity to the bead are able to excite the scintillant, resulting in the generation of quantifiable light. The assay is performed in a 96-well polystyrene microtiterplate (1450-514, Isoplates, Wallac, Turku, Finland). The reaction mixture (50 μl) contains 10 μl of the test compound together with 10 μl of the relevant kinase, diluted in the relevant dilution buffer, 5 μl of 10 μM phorbol myristate acetate (PMA) in H2O, 5 μl of 1.6 mM phosphatidylserine (Sigma-Aldrich Chemie GmbH, Stein-heim, Germany) in 20 mM Tris/HCL buffer pH 7.4, 5 μl of 0.3% BSA in H2O, 5 μl of 30 μM relevant substrate and 10 μl of 5 μM ATP and 0.1 μCi of ^33P-ATP (Amersham, Freiburg, Germany) in 200 mM Tris/HCL pH 7.5 and 200 mM MgCl2. Incubation is performed for 40 min at room temperature (RT) without shaking. Reaction is stopped by adding 150 μl of cold stop solution containing 10 mM ATP, 5 mM EGTA pH 7.5, 0.1% Triton X-100 and 0.2 mg streptavidin coated yttrium silicate SPA beads (Amersham, RPNQ 0012). The sealed plate is incubated for 60 min at RT. Thereafter the MTP is counted in a Microbeta Jet (Wallac). IC50 measurement is performed on a routine basis by incubation a serial dilution of inhibitor at concentrations ranging between 0.01 and 100 μM according to the method described above. Background values are the signals of the reaction mixture without addition of the relevant kinase and are subtracted from all values. 100% values are the signals of the reaction mixture without addition of inhibitors.
Dependent on the efficacy of the inhibitors In the various test systems, corresponding IC50 values are calculated from concentration-inhibition curves by nonlinear regression analysis using the program GraphPad Prism (GraphPad Software Inc., San Diego, Calif.).
Human recombinant PKCβ1 was obtained from Panvera and is used under the assay conditions as described above (Section A.1). The enzyme is diluted in PKC dilution buffer containing 1 mM Hepes pH 7.4, 0.5 mM DTT and 0.001% Triton X-100. The assay additionally contains 0.5 mM CaCl2. The kinase reaction is performed with the biotinylated PKCα pseudosubstrate solved in H2O. The examples 29, 45, 52, 128 and 139 inhibit PKC β1 in this assay with an IC50 between 2 and 40 μM.

For a further assay, the target named is T2, Lck (Homo sapiens, UniProt P06239).
T2 construct: purchased Upstate (Dundee, UK)
In words: Lck (p56Lck) assay (SPA). It counts as biochemical. The settings on record: human recombinant Lck, read-out: IC50, inhibition of Lck. The procedure:
The compounds of formula 1 are tested for their activity on different protein kinases and PKC isoforms using a scintillation proximity assay (SPA, Amersham International plc). ^33P-labeled peptides are captured onto streptavidin coated yttrium silicate SPA beads. β-particles, emitted from the captured ^33P-labeled substrate in close proximity to the bead are able to excite the scintillant, resulting in the generation of quantifiable light. The assay is performed in a 96-well polystyrene microtiterplate (1450-514, Isoplates, Wallac, Turku, Finland). The reaction mixture (50 μl) contains 10 μl of the test compound together with 10 μl of the relevant kinase, diluted in the relevant dilution buffer, 5 μl of 10 μM phorbol myristate acetate (PMA) in H2O, 5 μl of 1.6 mM phosphatidylserine (Sigma-Aldrich Chemie GmbH, Stein-heim, Germany) in 20 mM Tris/HCL buffer pH 7.4, 5 μl of 0.3% BSA in H2O, 5 μl of 30 μM relevant substrate and 10 μl of 5 μM ATP and 0.1 μCi of ^33P-ATP (Amersham, Freiburg, Germany) in 200 mM Tris/HCL pH 7.5 and 200 mM MgCl2. […] Thereafter the MTP is counted in a Microbeta Jet (Wallac). […]
Human recombinant Lck was obtained from Upstate (Dundee, UK) and is used in a scintillation proximity assay described in Section A.1. […] Thereafter the MTP is counted in a Microbeta Jet (Wallac). […] IC50 values are calculated from the graph by sigmoidal curve fitting. […]

A further assay relates to responder T cells. In words: Mixed lymphocyte reaction (MLR), T cell proliferation. The assay is classed as cell-based. The settings on record: [3H]thymidine incorporation after 48 h, read-out: IC50, inhibition of MLR-mediated T-cell proliferation. On the procedure:
For MLR cultures 4×10^5 responder T cells are incubated in duplicates with 2×10^5 mitomycin C-treated allogeneic stimulator T cells in a total volume of 200 μl RPMI 1640 medium supplemented with 10% FCS, 2 mM L-glutamine, 100 U/ml penicillin and 100 μg/ml streptomycin (Gibco Life Technologies) in 96 well tissue culture plates (655180, flat bottom, Greiner). Cells are maintained at 37° C. in a humidified atmosphere of 5% CO2. After 48 h of growth, cells are pulsed with 1 μCi [^3H]thymidine and incorporation of [^3H]thymidine is measured with a Topcount radioactive counter (Packard). To investigate the effect of a test compound on MLR-mediated T cell proliferation six three-fold dilution steps in duplicates per test compound are performed (final DMSO concentration 0.1%). Low control values are the proliferation of responder cells alone; high controls are from mixed lymphocyte cells without any test samples. Low controls are subtracted from all values. The inhibition obtained in the presence of a test compound is calculated as percent Inhibition of the high control. The concentration of test compounds resulting in 50% inhibition (IC50) is determined from the dose-response curves. The examples 91, 128, 133 and 137 inhibit MLR-mediated T-cell proliferation in this assay with an IC50<1 μM.
(Dividing cells build labelled thymidine or BrdU into new DNA.)

Another assay deals with T3, PKCι (Homo sapiens, UniProt P41743).
T3 construct: made in house; host or cells: Sf21 insect cells
T3 sequence (P41743 1-596): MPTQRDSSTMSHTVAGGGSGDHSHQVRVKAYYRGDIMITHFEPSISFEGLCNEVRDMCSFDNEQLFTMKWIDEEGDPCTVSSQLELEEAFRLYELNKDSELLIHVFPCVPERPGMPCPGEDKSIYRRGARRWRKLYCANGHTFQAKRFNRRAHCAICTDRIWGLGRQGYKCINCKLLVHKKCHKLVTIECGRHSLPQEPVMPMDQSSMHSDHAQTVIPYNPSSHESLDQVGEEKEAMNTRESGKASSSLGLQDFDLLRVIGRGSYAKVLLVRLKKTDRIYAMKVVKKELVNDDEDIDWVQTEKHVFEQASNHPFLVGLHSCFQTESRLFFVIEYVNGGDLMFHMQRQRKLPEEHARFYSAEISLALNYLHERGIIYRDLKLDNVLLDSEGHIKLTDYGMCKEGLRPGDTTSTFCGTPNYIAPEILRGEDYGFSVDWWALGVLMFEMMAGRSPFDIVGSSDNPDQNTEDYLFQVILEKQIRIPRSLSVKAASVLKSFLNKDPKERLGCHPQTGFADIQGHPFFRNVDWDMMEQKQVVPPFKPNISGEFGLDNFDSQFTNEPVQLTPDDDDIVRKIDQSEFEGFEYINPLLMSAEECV
The assay can be described thus: Protein Kinase C ι assay (SPA). The assay is classed as biochemical. Conditions: human recombinant PKCι from Sf21 insect cells, absence of PMA and phosphatidylserine, read-out: IC50, inhibition of PKC ι. The procedure:
as §1
Dependent on the efficacy of the inhibitors In the various test systems, corresponding IC50 values are calculated from concentration-inhibition curves by nonlinear regression analysis using the program GraphPad Prism (GraphPad Software Inc., San Diego, Calif.). […]

The target of another assay is T4, Rsk1 (Homo sapiens, UniProt Q15418).
T4 construct: purchased Upstate ltd, Dundee, UK (external KinaseProfiler service)
In words: Rsk1 KinaseProfiler assay (Upstate). Conditions: human recombinant Rsk, externally tested (IC50Profiler, Upstate), 10 μM ATP; read-out: IC50, inhibition of Rsk1. The assay is classed as biochemical. On the procedure: To investigate the effect of a test compound on p90 ribosomal S6 kinase (Rsk) family, the compounds are externally tested in KinaseProfiler assay (Upstate ltd, Dundee, UK) described in product guide brochure. In brief, in a final reaction volume of 25 μl, 5-10 mU of human recombinant Rsk are incubated with 8 mM MOPS pH 7.0, 0.2 mM EDTA, 30 μM KKKNRTLSVA, 10 mM MgAcetate and 10 μM [γ-33P-ATP]. The reaction is initiated by addition of the MgATP mix. After incubation for 40 minutes at RT, the reaction is stopped by the addition of 5 μl of a 3% phosphoric acid solution. 10 μl of the reaction is then spotted onto P30 filtermat and washed three times for 5 minutes in 75 mM phosphoric acid and once in methanol prior to drying and scintillation counting. The IC50 value is estimated by preparing a 10 point curve using a ½ log dilution series (IC50Profiler, Upstate). The examples 129, 431 and 173 inhibit Rsk1 in this assay with an IC50<1 μM.

Structures can show the parent of a compound that is named as a salt.

T4 sequence (Q15418 whole entry): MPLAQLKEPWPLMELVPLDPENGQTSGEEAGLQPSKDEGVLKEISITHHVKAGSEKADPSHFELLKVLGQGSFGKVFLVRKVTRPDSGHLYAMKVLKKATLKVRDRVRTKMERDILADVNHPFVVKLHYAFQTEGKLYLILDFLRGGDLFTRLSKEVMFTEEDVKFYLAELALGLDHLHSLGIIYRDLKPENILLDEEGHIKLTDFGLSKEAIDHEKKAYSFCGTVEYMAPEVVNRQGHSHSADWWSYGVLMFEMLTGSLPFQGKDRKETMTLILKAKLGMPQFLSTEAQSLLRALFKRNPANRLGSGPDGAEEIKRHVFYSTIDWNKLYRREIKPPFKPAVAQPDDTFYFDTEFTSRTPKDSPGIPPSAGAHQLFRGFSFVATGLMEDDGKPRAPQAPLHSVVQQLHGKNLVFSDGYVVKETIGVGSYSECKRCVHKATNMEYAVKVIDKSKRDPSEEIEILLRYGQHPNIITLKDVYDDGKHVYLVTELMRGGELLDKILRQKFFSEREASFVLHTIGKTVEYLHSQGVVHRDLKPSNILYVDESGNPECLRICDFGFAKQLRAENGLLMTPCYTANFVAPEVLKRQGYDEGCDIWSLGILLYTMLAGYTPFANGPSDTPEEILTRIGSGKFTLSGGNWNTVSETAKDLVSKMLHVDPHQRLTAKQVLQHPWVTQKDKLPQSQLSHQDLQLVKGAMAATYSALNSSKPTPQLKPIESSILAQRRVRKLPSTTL
T2 sequence (P06239 whole entry): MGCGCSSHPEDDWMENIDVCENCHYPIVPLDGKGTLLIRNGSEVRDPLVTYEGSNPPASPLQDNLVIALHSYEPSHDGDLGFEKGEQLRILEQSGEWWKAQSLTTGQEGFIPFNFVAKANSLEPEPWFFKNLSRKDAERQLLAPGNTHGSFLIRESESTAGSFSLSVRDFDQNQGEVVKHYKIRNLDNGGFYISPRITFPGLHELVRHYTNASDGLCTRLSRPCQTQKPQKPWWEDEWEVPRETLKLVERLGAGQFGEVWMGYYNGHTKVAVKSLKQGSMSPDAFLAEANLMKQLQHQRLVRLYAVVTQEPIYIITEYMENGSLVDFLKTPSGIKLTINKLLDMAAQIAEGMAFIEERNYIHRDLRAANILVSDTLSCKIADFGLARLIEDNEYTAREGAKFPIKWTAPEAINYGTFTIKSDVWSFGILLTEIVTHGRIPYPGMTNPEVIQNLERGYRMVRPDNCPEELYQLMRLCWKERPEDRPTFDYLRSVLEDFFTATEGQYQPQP
T1 sequence (P05771 whole entry): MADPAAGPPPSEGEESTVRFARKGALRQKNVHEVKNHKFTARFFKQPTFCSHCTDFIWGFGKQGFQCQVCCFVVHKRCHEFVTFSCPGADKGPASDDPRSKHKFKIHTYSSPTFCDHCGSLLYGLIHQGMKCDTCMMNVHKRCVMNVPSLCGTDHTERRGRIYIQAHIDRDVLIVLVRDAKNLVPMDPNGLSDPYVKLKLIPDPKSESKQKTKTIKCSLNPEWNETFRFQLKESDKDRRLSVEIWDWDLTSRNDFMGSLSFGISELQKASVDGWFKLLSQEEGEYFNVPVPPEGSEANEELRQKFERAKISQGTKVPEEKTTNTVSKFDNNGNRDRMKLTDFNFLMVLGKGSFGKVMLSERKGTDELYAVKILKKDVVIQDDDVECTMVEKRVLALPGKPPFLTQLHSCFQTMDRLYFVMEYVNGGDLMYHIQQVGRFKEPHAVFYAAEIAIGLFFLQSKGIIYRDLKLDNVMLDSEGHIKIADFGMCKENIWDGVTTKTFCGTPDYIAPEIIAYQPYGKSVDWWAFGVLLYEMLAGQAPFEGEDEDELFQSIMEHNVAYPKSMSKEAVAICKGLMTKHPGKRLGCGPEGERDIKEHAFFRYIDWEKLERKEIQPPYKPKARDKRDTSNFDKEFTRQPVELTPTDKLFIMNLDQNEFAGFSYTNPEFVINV

`CN(C)CCCn1ccc2cc(-c3cc(Nc4ccc(NS(=O)(=O)c5c(F)cccc5F)cc4)ncn3)ccc21` [Example 128, N-(4-{6-[1-(3-Dimethylamino-propyl)-1H-indol-5-yl]-pyrimidin-4-ylamino}-phenyl)-2,6-difluoro-benzenesulfonamide]: the IC50 on PKCβ1 is 2 to 40 µM; at Lck, less than 3 µM; with responder T cells, less than 1 µM.

On to `COc1ccc(S(=O)(=O)Nc2ccc(Nc3cc(-c4ccc5c(ccn5CCCN(C)C)c4)ncn3)cc2)cc1` [Example 131, N-(4-[6-[1-(3-Dimethylamino-propyl)-1H-indol-5-yl]pyrimidin-4-ylamino]phenyl)-4-methoxy-benzenesulfonamide], for which the IC50 at Lck was less than 3 µM.

As for `CCN(CC)CCCn1cc(-c2cc(Nc3ccc(NS(=O)(=O)c4c(F)cccc4F)cc3)ncn2)c2ccccc21` [Example 173, N-(4-{6-[1-(3-Diethylamino-propyl)-1H-indol-3-yl]-pyrimidin-4-ylamino}-phenyl)-2,6-difluoro-benzenesulfonamide formic acid salt], the IC50 at PKCι was 7 to 34 µM; at Rsk1, less than 1 µM.

On to `CN(C)CCCn1ccc2cc(-c3cc(Nc4ccc(NS(=O)(=O)c5ccccc5F)cc4)ncn3)ccc21` [Example 129, N-(4-{6-[1-(3-Dimethylamino-propyl)-1H-indol-5-yl]-pyrimidin-4-ylamino}-phenyl)-2-fluorobenzenesulfonamide], for which the IC50 at Rsk1 is less than 1 µM.
